A word on the IC50: it is the concentration that gives 50% inhibition.

Experimental findings from US12371428B2 (Exelixis, Inc., priority 2019, dated 2025) are described below.

Assay [1] has as its target Mer (phospho-Mer, MERTK-transfected 293A cells) (Homo sapiens (Human), UniProt Q12866). As to the kind of experiment: Mer autophosphorylation ELISA in transient transfected 293A cells (Example H). The settings on record: cellular activity; Mer autophosphorylation ELISA in transient transfected 293A cells. In kind it is cell-based. In short, it runs like this:
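293A cells transiently transfected with human MERTK were treated 1 h in serum-free medium with an 8-point compound dilution (0.3% DMSO final). Lysates were assayed by phospho-Mer sandwich ELISA against a phospho-Mer standard; IC50 came from a 4-parameter logistic fit, normalised to DMSO (100%) and reference-inhibitor (0%) controls.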
(In an ELISA, binding on a coated surface is turned into a signal by an enzyme label.)

The target in assay [2] is Human KDR (residues 790-1356) (Homo sapiens (Human), UniProt P35968). As to the kind of experiment: Human KDR kinase assay, HTRF KinEase (Example B-2). The settings on record: protocol of Example B-2 (other compounds). The assay is classed as biochemical. The procedure, abridged:
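Human KDR residues 790-1356 (0.1 ng/well) in buffer with 5 mM MgCl2, 1 mM MnCl2, 1 mM DTT, biotinylated peptide substrate, ATP at Km (4.0 μM), 3% DMSO, 10 compound concentrations; 40 min, room temperature. EDTA stop, streptavidin-XL665/Eu-TK antibody HTRF read 665/620 nm; 4-parameter IC50.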

The target of assay [3] is Human MER (residues 528-999) (Homo sapiens (Human), UniProt Q12866). As to the kind of experiment: Human Mer kinase assay, HTRF KinEase (Example C-2). In kind it is biochemical. The settings on record: protocol of Example C-2 (other compounds). The procedure, abridged:
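Recombinant MER 528-999 (1 ng/well) in buffer with 5 mM MgCl2 and 1 mM DTT was reacted with biotinylated peptide and ATP at Km (40 μM) for 60 min at room temperature. EDTA stop with SA-XL665 and Eu3+ TK antibody, then 665/620 nm HTRF read; IC50 from 4-parameter fit.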

Assay [4] concerns the target Met (phospho-Met, HGF-stimulated PC-3 prostate cancer cells) (Homo sapiens (Human), UniProt P08581). Put plainly: Met autophosphorylation ELISA in PC-3 cells (Example F). The assay is classed as cell-based. The settings on record: cellular activity; Met autophosphorylation ELISA in PC-3 cells; read-out: c-Met IC50. In short, it runs like this: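 Serum-starved (3 h) PC-3 cells were treated 1 h with compounds (8-point curve, 0.3% DMSO), then stimulated with 100 ng/mL human HGF for 10 min. Lysate phospho-Met (panTyr) was measured by sandwich ELISA, normalised to DMSO and reference-inhibitor controls. IC50 came from 4-parameter logistic fit.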

Sequence of Mer (phospho-Mer, MERTK-transfected 293A cells) (Q12866 21-999): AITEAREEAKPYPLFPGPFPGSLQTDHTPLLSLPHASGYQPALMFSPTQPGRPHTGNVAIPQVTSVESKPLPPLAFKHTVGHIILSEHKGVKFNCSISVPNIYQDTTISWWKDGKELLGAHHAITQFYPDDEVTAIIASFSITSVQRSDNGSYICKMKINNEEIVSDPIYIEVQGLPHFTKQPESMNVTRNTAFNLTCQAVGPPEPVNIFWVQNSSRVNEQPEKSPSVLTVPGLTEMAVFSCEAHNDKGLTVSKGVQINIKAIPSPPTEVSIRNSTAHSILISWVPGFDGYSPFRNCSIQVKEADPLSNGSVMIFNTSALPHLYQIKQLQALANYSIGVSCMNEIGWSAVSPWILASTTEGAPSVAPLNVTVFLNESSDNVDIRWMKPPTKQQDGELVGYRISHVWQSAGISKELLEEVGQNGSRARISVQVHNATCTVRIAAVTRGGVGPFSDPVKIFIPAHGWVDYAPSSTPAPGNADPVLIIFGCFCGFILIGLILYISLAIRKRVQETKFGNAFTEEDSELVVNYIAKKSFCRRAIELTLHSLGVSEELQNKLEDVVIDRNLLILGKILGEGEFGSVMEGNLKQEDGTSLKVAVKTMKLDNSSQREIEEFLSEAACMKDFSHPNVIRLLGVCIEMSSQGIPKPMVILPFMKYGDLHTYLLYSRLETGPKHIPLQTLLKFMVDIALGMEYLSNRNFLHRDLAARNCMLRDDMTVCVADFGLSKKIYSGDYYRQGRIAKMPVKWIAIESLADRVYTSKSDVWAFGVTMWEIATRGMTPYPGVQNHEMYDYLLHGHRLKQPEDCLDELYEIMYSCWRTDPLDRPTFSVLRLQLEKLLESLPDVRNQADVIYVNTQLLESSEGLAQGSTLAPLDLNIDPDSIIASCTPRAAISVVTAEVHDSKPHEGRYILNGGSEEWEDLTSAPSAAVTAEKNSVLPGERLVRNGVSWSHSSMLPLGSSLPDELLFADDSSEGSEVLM
Sequence of Human MER (residues 528-999) (Q12866 528-999): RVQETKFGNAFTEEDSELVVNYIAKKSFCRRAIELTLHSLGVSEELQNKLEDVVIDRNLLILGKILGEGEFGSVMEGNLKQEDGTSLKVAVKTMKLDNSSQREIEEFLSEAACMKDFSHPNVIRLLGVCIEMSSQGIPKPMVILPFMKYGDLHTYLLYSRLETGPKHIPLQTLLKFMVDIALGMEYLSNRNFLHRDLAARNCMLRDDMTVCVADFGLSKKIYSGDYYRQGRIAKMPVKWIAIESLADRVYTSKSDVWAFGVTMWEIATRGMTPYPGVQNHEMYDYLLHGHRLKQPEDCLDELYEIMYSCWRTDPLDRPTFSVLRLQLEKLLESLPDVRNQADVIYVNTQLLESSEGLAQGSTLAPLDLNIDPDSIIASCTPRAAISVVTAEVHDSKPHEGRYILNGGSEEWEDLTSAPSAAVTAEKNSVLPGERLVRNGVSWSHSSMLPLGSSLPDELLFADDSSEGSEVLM
Sequence of Human KDR (residues 790-1356) (P35968 790-1356): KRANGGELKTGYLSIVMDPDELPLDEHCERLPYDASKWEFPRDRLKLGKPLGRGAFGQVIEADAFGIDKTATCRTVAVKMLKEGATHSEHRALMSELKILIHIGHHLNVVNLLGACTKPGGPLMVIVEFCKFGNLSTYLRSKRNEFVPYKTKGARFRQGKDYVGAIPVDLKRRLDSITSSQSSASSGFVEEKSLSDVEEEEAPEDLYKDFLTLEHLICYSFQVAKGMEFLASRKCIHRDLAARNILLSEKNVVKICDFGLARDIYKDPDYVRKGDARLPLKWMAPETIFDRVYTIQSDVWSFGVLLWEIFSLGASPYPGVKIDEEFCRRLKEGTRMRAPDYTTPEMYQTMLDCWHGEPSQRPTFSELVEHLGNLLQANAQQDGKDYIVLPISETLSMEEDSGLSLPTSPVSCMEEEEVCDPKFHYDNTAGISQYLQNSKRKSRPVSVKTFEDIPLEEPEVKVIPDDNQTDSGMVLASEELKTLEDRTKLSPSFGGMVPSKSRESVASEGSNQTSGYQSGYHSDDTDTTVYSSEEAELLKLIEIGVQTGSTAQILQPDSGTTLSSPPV
Sequence of Met (phospho-Met, HGF-stimulated PC-3 prostate cancer cells) (P08581 25-1390): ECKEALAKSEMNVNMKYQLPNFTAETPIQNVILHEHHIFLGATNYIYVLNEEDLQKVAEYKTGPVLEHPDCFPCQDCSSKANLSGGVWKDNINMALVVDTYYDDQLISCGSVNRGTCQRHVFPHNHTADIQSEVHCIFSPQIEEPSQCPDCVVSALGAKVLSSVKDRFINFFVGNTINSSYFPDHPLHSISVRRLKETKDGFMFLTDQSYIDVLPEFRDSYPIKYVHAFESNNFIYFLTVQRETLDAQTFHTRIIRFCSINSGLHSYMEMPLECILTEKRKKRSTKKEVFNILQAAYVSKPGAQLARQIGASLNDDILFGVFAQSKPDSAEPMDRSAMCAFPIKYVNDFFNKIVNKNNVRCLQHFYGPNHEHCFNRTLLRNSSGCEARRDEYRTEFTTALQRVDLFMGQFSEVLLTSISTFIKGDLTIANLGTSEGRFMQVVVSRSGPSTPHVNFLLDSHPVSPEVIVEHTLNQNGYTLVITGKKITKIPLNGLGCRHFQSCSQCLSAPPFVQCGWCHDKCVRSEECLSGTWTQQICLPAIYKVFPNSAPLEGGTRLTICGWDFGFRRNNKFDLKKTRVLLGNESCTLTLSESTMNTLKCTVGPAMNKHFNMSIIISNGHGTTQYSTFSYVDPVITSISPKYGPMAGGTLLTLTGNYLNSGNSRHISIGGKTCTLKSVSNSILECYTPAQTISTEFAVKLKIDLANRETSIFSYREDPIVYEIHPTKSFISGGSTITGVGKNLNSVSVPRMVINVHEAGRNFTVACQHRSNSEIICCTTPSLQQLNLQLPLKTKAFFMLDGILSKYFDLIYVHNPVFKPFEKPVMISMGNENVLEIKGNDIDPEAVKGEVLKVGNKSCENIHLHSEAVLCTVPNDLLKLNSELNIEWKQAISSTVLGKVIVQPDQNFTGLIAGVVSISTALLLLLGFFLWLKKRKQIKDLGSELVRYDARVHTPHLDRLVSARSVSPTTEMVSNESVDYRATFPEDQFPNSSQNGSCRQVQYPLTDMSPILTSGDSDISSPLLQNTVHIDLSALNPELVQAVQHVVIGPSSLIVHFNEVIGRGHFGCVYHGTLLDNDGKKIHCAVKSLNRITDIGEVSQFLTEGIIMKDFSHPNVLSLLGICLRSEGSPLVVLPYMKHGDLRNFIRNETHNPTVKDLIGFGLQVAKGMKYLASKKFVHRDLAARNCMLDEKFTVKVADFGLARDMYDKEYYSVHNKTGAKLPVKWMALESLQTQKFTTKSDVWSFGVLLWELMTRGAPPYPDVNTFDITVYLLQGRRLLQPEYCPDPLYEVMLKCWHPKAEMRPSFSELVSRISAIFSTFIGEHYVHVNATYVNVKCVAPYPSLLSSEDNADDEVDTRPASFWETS

With `CCc1cnc2c(Oc3ccc(NC(=O)c4cnc(C)c(-c5ccc(F)cc5)c4O)cc3F)ccnc2c1` [Compound 418, N-[4-[(7-ethyl-1,5-naphthyridin-4-yl)oxy]-3-fluorophenyl]-5-(4-fluorophenyl)-4-hydroxy-6-methylpyridine-3-carboxamide], the IC50 in assay [1] is below 100 nM; in assay [2], 100 to 300 nM; in assay [3], below 100 nM; in assay [4] it was below 100 nM.

As to `CCc1cnc2c(Oc3ccc(NC(=O)c4cnc(C)c(-c5ccc(F)cc5C)c4O)cc3F)ccnc2c1` [Compound 419, N-[4-[(7-ethyl-1,5-naphthyridin-4-yl)oxy]-3-fluorophenyl]-5-(4-fluoro-2-methylphenyl)-4-hydroxy-6-methylpyridine-3-carboxamide], the IC50 in assay [1] was below 100 nM; in assay [2], above 300 nM; in assay [3], below 100 nM; in assay [4], below 100 nM.

Turning to `CCc1cc2nccc(Oc3ccc(NC(=O)c4cnc(C)c(-c5ccc(F)cc5)c4O)cc3F)c2nc1OC` [Compound 420, N-[4-[(7-ethyl-6-methoxy-1,5-naphthyridin-4-yl)oxy]-3-fluorophenyl]-5-(4-fluorophenyl)-4-hydroxy-6-methylpyridine-3-carboxamide], the IC50 in assay [1] was below 100 nM; in assay [2] it was 100 to 300 nM; in assay [3] it was below 100 nM; in assay [4] it was below 100 nM.

In the case of `CCc1cc2nccc(Oc3ccc(NC(=O)c4cnc(C)c(-c5ccc(F)cc5C)c4O)cc3F)c2nc1OC` [Compound 421, N-[4-[(7-ethyl-6-methoxy-1,5-naphthyridin-4-yl)oxy]-3-fluorophenyl]-5-(4-fluoro-2-methylphenyl)-4-hydroxy-6-methylpyridine-3-carboxamide], the IC50 in assay [1] was below 100 nM; in assay [2], above 300 nM; in assay [3], below 100 nM; in assay [4], below 100 nM.

Consider `C=Cc1cc2nccc(Oc3ccc(NC(=O)c4cnc(C)c(-c5ccc(F)cc5)c4O)cc3F)c2nc1OC` [Compound 422, N-[4-[(7-ethenyl-6-methoxy-1,5-naphthyridin-4-yl)oxy]-3-fluorophenyl]-5-(4-fluorophenyl)-4-hydroxy-6-methylpyridine-3-carboxamide], for which the IC50 in assay [1], in assay [2], in assay [3] and in assay [4] was below 100 nM each time.

On to `C=Cc1cc2nccc(Oc3ccc(NC(=O)c4cnc(C)c(-c5ccc(F)cc5C)c4O)cc3F)c2nc1OC` [Compound 423, N-[4-[(7-ethenyl-6-methoxy-1,5-naphthyridin-4-yl)oxy]-3-fluorophenyl]-5-(4-fluoro-2-methylphenyl)-4-hydroxy-6-methylpyridine-3-carboxamide], for which the IC50 in assay [1] is below 100 nM; in assay [2] it was above 300 nM; in assay [3] it was below 100 nM; in assay [4], below 100 nM.

In the case of `COc1cc2nccc(Oc3ccc(NC(=O)c4cnc(C)c(-c5ccc(F)cc5)c4O)cc3F)c2nc1OCCCN1CCOCC1` [Compound 424, N-[3-fluoro-4-[[7-methoxy-6-(3-morpholin-4-ylpropoxy)-1,5-naphthyridin-4-yl]oxy]phenyl]-5-(4-fluorophenyl)-4-hydroxy-6-methylpyridine-3-carboxamide], the IC50 in assay [1], in assay [2], in assay [3] and in assay [4] was below 100 nM throughout.

In the case of `COc1cc2nccc(Oc3ccc(NC(=O)c4cnc(C)c(-c5ccc(F)cc5C)c4O)cc3F)c2nc1OCCCN1CCOCC1` [Compound 425, N-[3-fluoro-4-[[7-methoxy-6-(3-morpholin-4-ylpropoxy)-1,5-naphthyridin-4-yl]oxy]phenyl]-5-(4-fluoro-2-methylphenyl)-4-hydroxy-6-methylpyridine-3-carboxamide], the concentration for half-maximal inhibition (IC50) in assay [1], in assay [2], in assay [3] and in assay [4] was below 100 nM each time.

Turning to `Cc1cc2nccc(Oc3ccc(NC(=O)c4cnc(C)c(-c5ccc(F)cc5)c4O)cc3F)c2nc1F` [Compound 426, N-[3-fluoro-4-[(6-fluoro-7-methyl-1,5-naphthyridin-4-yl)oxy]phenyl]-5-(4-fluorophenyl)-4-hydroxy-6-methylpyridine-3-carboxamide], the half-maximal inhibitory concentration (IC50) in assay [1] is below 100 nM; in assay [2], 100 to 300 nM; in assay [3], below 100 nM; in assay [4], below 100 nM.

`Cc1cc(F)ccc1-c1c(C)ncc(C(=O)Nc2ccc(Oc3ccnc4cc(C)c(F)nc34)c(F)c2)c1O` [Compound 427, N-[3-fluoro-4-[(6-fluoro-7-methyl-1,5-naphthyridin-4-yl)oxy]phenyl]-5-(4-fluoro-2-methylphenyl)-4-hydroxy-6-methylpyridine-3-carboxamide]: the IC50 in assay [1] was below 100 nM; in assay [2], above 300 nM; in assay [3] it was below 100 nM; in assay [4], below 100 nM.

With `Cc1cc(F)ccc1-c1c(C)nc(C)c(C(=O)Nc2ccc(Oc3ccnc4cc(C)c(F)nc34)c(F)c2)c1O` [Compound 428, N-[3-fluoro-4-[(6-fluoro-7-methyl-1,5-naphthyridin-4-yl)oxy]phenyl]-5-(4-fluoro-2-methylphenyl)-4-hydroxy-2,6-dimethylpyridine-3-carboxamide], the IC50 is below 100 nM in assay [1], 100 to 300 nM in assay [2], below 100 nM in assay [3] and below 100 nM in assay [4].

Take `Cc1cc(F)ccc1-c1c(C)n(C)cc(C(=O)Nc2ccc(Oc3ccnc4cc(C)c(F)nc34)c(F)c2)c1=O` [Compound 429, N-[3-fluoro-4-[(6-fluoro-7-methyl-1,5-naphthyridin-4-yl)oxy]phenyl]-5-(4-fluoro-2-methylphenyl)-1,6-dimethyl-4-oxopyridine-3-carboxamide]: the IC50 in assay [1] was below 100 nM; in assay [2], above 300 nM; in assay [3], below 100 nM; in assay [4] it was below 100 nM.

In the case of `Cc1cc(F)ccc1-c1c(C)nnc(C(=O)Nc2ccc(Oc3ccnc4cc(C)c(F)nc34)c(F)c2)c1O` [Compound 430, N-[3-fluoro-4-[(6-fluoro-7-methyl-1,5-naphthyridin-4-yl)oxy]phenyl]-5-(4-fluoro-2-methylphenyl)-4-hydroxy-6-methylpyridazine-3-carboxamide], the 50% inhibitory concentration (IC50) in assay [1] is below 100 nM; in assay [2], above 300 nM; in assay [3] it was below 100 nM; in assay [4], below 100 nM.

Take `COc1nc2c(Oc3ccc(NC(=O)c4c(C)nc(C)c(-c5ccc(F)cc5)c4O)cc3F)ccnc2cc1O` [Compound 431, N-[3-fluoro-4-[(7-hydroxy-6-methoxy-1,5-naphthyridin-4-yl)oxy]phenyl]-5-(4-fluorophenyl)-4-hydroxy-2,6-dimethylpyridine-3-carboxamide]: the IC50 in assay [1], in assay [2], in assay [3] and in assay [4] was below 100 nM in each case.

For `COCCOc1cc2nccc(Oc3ccc(NC(=O)c4c(C)nc(C)c(-c5ccc(F)cc5)c4O)cc3F)c2nc1OC` [Compound 432, N-[3-fluoro-4-[[6-methoxy-7-(2-methoxyethoxy)-1,5-naphthyridin-4-yl]oxy]phenyl]-5-(4-fluorophenyl)-4-hydroxy-2,6-dimethylpyridine-3-carboxamide], the IC50 in assay [1], in assay [2], in assay [3] and in assay [4] was below 100 nM each time.
